These results are taken from article PMC12655351, “Synthesis and Anticancer Activity Evaluation of New 5-((5-Nitrofuran-2-yl)allylidene)-2-thioxo-4-thiazolidinones” (Pharmaceuticals, 2025).

Data set [1] relates to caspase-3 in MDA-MB-231 cells. Briefly: caspase-3 ELISA. The note with it: MDA-MB-231, 10 μM (highest concentration), 24 h. The class given is cell-based, human. As for the experimental part:
To confirm the activity of the caspase pathway, an effector caspase-3 was assayed on MCF-7 and MDA-MB-231 cell lines after 24 h of treatment using the ELISA method. Novel 4-thiazolidinone derivatives were tested in concentrations of 1 and 5 μM for the MCF-7 cell line and 5 and 10 μM for the MDA-MB-231 cell line.
Using a SimpleStep ELISA kit (Abcam, Cambridge, UK), we determined the levels of cytochrome C and caspase-3 in cells’ lysates with 2b, 12b, and 14b (1 and 5 μM for the MCF-7 cell line and 5 and 10 μM for the MDA-MB-231) and doxorubicin in concentrations of 1 and 5 μM for both lines after 24 h incubation. Assays were performed according to the manufacturer’s protocols.

For the next data set, the system named is MCF-7 cell line. Briefly: Annexin V-FITC/propidium iodide flow cytometry. The format is cell-based, human. Conditions: 24 h. As for the experimental part:
The three chosen compounds, 2b, 12b, and 14b, were tested using Annexin V-FITC and propidium iodide to assess their effects on apoptosis induction on MCF-7 and MDA-MB-231 cell lines. To evaluate the population of cells, four states were determined: unstained cells (alive), cells stained with propidium iodide (necrotic), cells stained with FITC-labeled Annexin V (early apoptotic), and cells stained with both Annexin V and propidium iodide (late apoptotic). […] In a concentration of 5 μM the values were 8.5% and 12.2%, respectively. For 12b in a concentration equal to 1 μM, the obtained results showcased 7.2% of cells in early and late apoptosis and 0.7% in a state of necrosis. For 5 μM concentration results were 23.7% and 11.5%, respectively.
(§1) To conduct induction of apoptosis on MCF-7 and MDA-MB-231 cell lines, three compounds with the lowest IC50 values were selected (2b, 12b, 14b). The concentration of these compounds depended on the cell line. For MCF-7 cell line concentrations of 1 and 5 μM were used, while for MDA-MB-231 cell line concentrations were 5 and 10 μM. For both cell lines doxorubicin was used as a reference compound in 1 and 5 μM concentrations. This study was evaluated using a flow cytometer (BD FACSCanto II, Becton Dickinson Biosciences Systems, San Jose, CA, USA) and Annexin V binding Apoptosis Detection Kit II (BD Biosciences, San Diego, CA, USA). Cells were seeded in 6-well culture plates cultured in accordance with the previously described methodology. The medium was removed from wells and then cells were washed with PBS. A cell suspension was prepared in the binding buffer provided in the kit at a concentration of 1 × 10^6 cells/mL. A total of 100 µL of cell suspension was collected from each sample and transferred to the tubes. Afterwards, 5 µL of Annexin V-FITC and 4 µL of propidium iodide (PI) were added to each tube and then the tubes were incubated in the dark for 15 min at room temperature. After incubation, the suspension was supplemented to 300 µL with a binding buffer and immediately read in a BD FACSCanto II flow cytometer (Becton Dickinson Biosciences, San Jose, CA, USA), where 10,000 events per sample were measured. Results were analyzed using FACSDiva Software Version 6.1.3. (BD Biosciences Systems, San Jose, CA, USA).

The next data set deals with MDA-MB-231 cell line. The data set can be described thus: Annexin V-FITC/propidium iodide flow cytometry. The format is cell-based, human. The note with it: 24 h. As for the experimental part: Similarly to Figure 3, Figure 4 showcases the flow cytometric assessment of compounds effects on apoptosis induction on the MDA-MB-231 cell line after 24 h of incubation with tested structures. For this cell line, based on previous results, higher concentrations of tested compounds were chosen: 5 and 10 μM. […] At the same time, compound 12b showcased 7.3% of early and late apoptotic cells, 1.2% of necrotic cells in 5 μM concentration, and 13.8% and 22.3% in 10 μM concentration, consequently.
as §1

A further data set has as its system HCC-2998. The data set can be described thus: cells. The note with it: Homo sapiens, HCC 2998, 48 h.
In the next data set the test system is MDA-MB-231/ATCC. The data set can be described thus: cells. Conditions: Homo sapiens, MDA-MB-231, 48 h; for GI50: MDA-MB-231/ATCC, 48 h; for CC50: read-out: LC50, MDA-MB-231/ATCC, 48 h.
In another data set the test system is COLO 205. Briefly: cells. Conditions: Homo sapiens, COLO 205, 48 h; for CC50: read-out: LC50, COLO 205, 48 h.
A further data set relates to NCI-H522. The data set can be described thus: NCI-60 SRB screen. The note with it: for GI50 / CC50: Homo sapiens; for GI50 / CC50 / TGI: NCI-H522, 48 h; for CC50: read-out: LC50, NCI-H522, 48 h.
Another data set has as its system SNB-19. The note with it: human, 48 h.
The test system of a further data set is SNB-75. The note with it: human, 48 h.
The test system of the next data set is NCI-H266. The note with it: human, 48 h.
Another data set concerns EKVX. Conditions: human, 48 h.
The test system of the next data set is NCI-H322M. Conditions: human, 48 h.
The test system of another data set is SK-MEL-2. The note with it: human, 48 h.
The subject of the next data set is SF-295. The note with it: human, 48 h.
A further data set concerns ACHN. Conditions: human, 48 h.

Some results are limits rather than exact numbers.

In the case of `CC(C(=O)O)N1C(=O)/C(=C/C=C/c2ccc([N+](=O)[O-])o2)SC1=S` (stereo not drawn) [2b, 2-((Z)-5-((E)-3-(5-Nitrofuran-2-yl)allylidene)-4-oxo-2-thioxothiazolidin-3-yl)propanoic acid], the “change of caspase-3 concentration” value in [1] is on record as “slight increase”. In the data set on MCF-7 cell line (MCF-7, 1 μM), the “cells in late and early apoptosis combined” value was determined as 7.7%; the necrotic cell population came to 0.7%. Further, in the data set on MCF-7 cell line (MCF-7, 5 μM), the “cells in late and early apoptosis combined” value was found to be 8.5%; the necrotic cell population amounted to 12.2%. Further, in the data set with MDA-MB-231 cell line (MDA-MB-231, 5 μM), the combined apoptotic cells was 7.8% and the necrotic cells worked out at 6.6%. For the same compound, in the data set with MDA-MB-231 cell line (MDA-MB-231, 10 μM), the combined apoptotic cells came out at 7.5% and the necrotic cells is on record as 44%.
For `CC(C)C(C(=O)O)N1C(=O)/C(=C/C=C/c2ccc([N+](=O)[O-])o2)SC1=S` (stereo not drawn) [5b, 3-Methyl-2-((Z)-5-((E)-3-(5-nitrofuran-2-yl)allylidene)-4-oxo-2-thioxothiazolidin-3-yl)butanoic acid], the 50% growth inhibitory concentration (GI50) worked out at 1.72 µM in the data set on HCC-2998, 1.56 µM in the data set with MDA-MB-231/ATCC, 1.33 µM with COLO 205 and 1.12 µM in the data set on NCI-H522. The CC50 is 5.9 µM with MDA-MB-231/ATCC, 5.83 µM in the data set with COLO 205 and 5.69 µM with NCI-H522. Also, the TGI with NCI-H522 was determined as 2.53 µM.
Turning to `O=C(O)CCCCCN1C(=O)/C(=C/C=C/c2ccc([N+](=O)[O-])o2)SC1=S` [14b, 6-((Z)-5-((E)-3-(5-nitrofuran-2-yl)allylidene)-4-oxo-2-thioxothiazolidin-3-yl)hexanoic acid], the “change of caspase-3 concentration” value in [1] was “at least two times more”. In addition, the CC50 in the data set with SNB-19 turned out to be 6.67 µM; with SNB-75, 4.03 µM; with NCI-H266 it was 96.3 µM; in the data set with COLO 205, 6.05 µM; in the data set on EKVX it was 7.52 µM; in the data set with NCI-H322M, 6.92 µM. Besides, the CC50 was determined as 6.87 µM in the data set with SK-MEL-2, 6.61 µM in the data set with SF-295 and 5 µM in the data set with ACHN. The figures for the GI50 with HCC-2998 and in the data set on COLO 205 were 1.78 µM and 1.56 µM, respectively. Further, the “cells in late and early apoptosis combined” value was 6.9% in the data set with MCF-7 cell line (MCF-7, 1 μM) and 29.2% in the data set on MCF-7 cell line (MCF-7, 5 μM). Further, the necrotic cell population is given as 0.6% in the data set on MCF-7 cell line (MCF-7, 1 μM) and 11.7% in the data set with MCF-7 cell line (MCF-7, 5 μM). For the same compound, the combined apoptotic cells in the data set on MDA-MB-231 cell line (MDA-MB-231, 5 μM) is given as 5.7%; with MDA-MB-231 cell line (MDA-MB-231, 10 μM) it was 28.8%. Besides, the necrotic cells with MDA-MB-231 cell line (MDA-MB-231, 5 μM) was found to be 1.4%; in the data set with MDA-MB-231 cell line (MDA-MB-231, 10 μM) it was 42.6%.
On to `O=C(O)CCN1C(=O)/C(=C/C=C/c2ccc([N+](=O)[O-])o2)SC1=S` [12b, 3-((Z)-5-((E)-3-(5-Nitrofuran-2-yl)allylidene)-4-oxo-2-thioxothiazolidin-3-yl)propanoic acid], for which, in [1], the “change of caspase-3 concentration” value is “significant increase”. Besides, in the data set on MCF-7 cell line (MCF-7, 1 μM), the “cells in late and early apoptosis combined” value was determined as 7.2%; the necrotic cell population is listed as 0.7%. In the data set with MCF-7 cell line (MCF-7, 5 μM), the “cells in late and early apoptosis combined” value came to 23.7%; the necrotic cell population amounted to 11.5%. For the same compound, in the data set with MDA-MB-231/ATCC, the GI50 was found to be 1.7 µM and the CC50 amounted to 6.15 µM. Further, in the data set with MDA-MB-231 cell line (MDA-MB-231, 5 μM), the combined apoptotic cells was 7.3% and the necrotic cells turned out to be 1.2%. In the data set with MDA-MB-231 cell line (MDA-MB-231, 10 μM), the combined apoptotic cells was 13.8% and the necrotic cells is listed as 22.3%. In the data set with NCI-H522, the GI50 is 1.1 µM, the CC50 was found to be 5.52 µM and the TGI stood at 2.46 µM.
For `O=C(O)CCCN1C(=O)/C(=C/C=C/c2ccc([N+](=O)[O-])o2)SC1=S` [13b, 4-((Z)-5-((E)-3-(5-Nitrofuran-2-yl)allylidene)-4-oxo-2-thioxothiazolidin-3-yl)butanoic acid], the CC50 was 5.5 µM in the data set on SNB-19; 5.49 µM with SNB-75; above 100 µM in the data set with NCI-H266; 6.05 µM with EKVX; 22.8 µM with NCI-H322M; 4.2 µM with SK-MEL-2. In addition, the values for the CC50 in the data set with SF-295 and with ACHN were 5.08 µM and 3.72 µM, respectively.
`O=C(O)C(c1ccccc1)N1C(=O)/C(=C/C=C/c2ccc([N+](=O)[O-])o2)SC1=S` (stereo not drawn) [9b, 2-((Z)-5-((E)-3-(5-Nitrofuran-2-yl)allylidene)-4-oxo-2-thioxothiazolidin-3-yl)-2-phenylacetic acid]: the GI50 with HCC-2998 was found to be 15.6 µM; in the data set on MDA-MB-231/ATCC, 10.8 µM; in the data set with COLO 205 it was 6.65 µM; with NCI-H522, 4.09 µM. Moreover, the results for the CC50 with MDA-MB-231/ATCC, in the data set with COLO 205 and in the data set on NCI-H522 were 54.2 µM, 60.4 µM and 64.6 µM, respectively. Besides, the “growth GP” value in the data set with NCI-H522 (NCI-H522, 10 μM, 48 h) is given as -88.21%. The compound also came in with a TGI in the data set on NCI-H522 of 19.1 µM.
As for `CCCC(C(=O)O)N1C(=O)/C(=C/C=C/c2ccc([N+](=O)[O-])o2)SC1=S` (stereo not drawn) [4b, 2-((Z)-5-((E)-3-(5-Nitrofuran-2-yl)allylidene)-4-oxo-2-thioxothiazolidin-3-yl)pentanoic acid], the GI50 with HCC-2998 worked out at 1.83 µM; with MDA-MB-231/ATCC, 2.21 µM; in the data set on COLO 205, 1.95 µM; with NCI-H522, 1.7 µM. Also, the CC50 in the data set on MDA-MB-231/ATCC turned out to be 8.33 µM; in the data set with COLO 205, 6.66 µM; in the data set with NCI-H522, 6.48 µM. In addition, the TGI in the data set on NCI-H522 is recorded as 3.32 µM.
Regarding `CCCCC(C(=O)O)N1C(=O)/C(=C/C=C/c2ccc([N+](=O)[O-])o2)SC1=S` (stereo not drawn) [6b, 2-((Z)-5-((E)-3-(5-nitrofuran-2-yl)allylidene)-4-oxo-2-thioxothiazolidin-3-yl)hexanoic acid], the GI50 with HCC-2998 was determined as 1.83 µM; with MDA-MB-231/ATCC it was 2.27 µM; in the data set with COLO 205, 2.02 µM; in the data set on NCI-H522 it was 1.74 µM. For the same compound, the CC50 was 8.73 µM in the data set on MDA-MB-231/ATCC, 6.65 µM in the data set on COLO 205 and 6.78 µM with NCI-H522. Besides, in the data set on NCI-H522, the TGI came out at 3.43 µM.
